Laboratory results: patent US5834453A, “Methods for the manufacture and use of antimicrobial sterol conjugates” (Lehigh University, priority 1997, dated 1998)
In brackets after ≈: the same amount, converted by molar mass. Entries after “also recorded” stand apart in the source; their conditions may differ. Read-outs that look alike come from different tables or passages of the source.

Key:
[1] = test system: various groups of microorganisms; assay: Antimicrobial activity (MIC), all microorganisms tested; format: cell-based; details: for MIC: 24 h, read-out: MICs against the various groups of microorganisms tested
Description: (§1) The antimicrobial activity of the compounds according to the present invention were compared with the results obtained for squalamine as reported in Proc. Nat. Acad. Sci. USA 90:1354 (1993), supra, the disclosure of which is incorporated in toto herein. The data reported in the following table is the minimum inhibitory concentration (MIC) required for complete inhibition of microbial growth. The MIC was determined utilizing known micro-broth dilution methods in which inocula of 10^6 /ml of the test organism were incubated in 0.5× trypticase soy broth at 35° C. for 24 hours. MIC's were also tested under various pH conditions, with calcium chloride or magnesium chloride, or with immobilized horse serum.
(§2) The numbers in parentheses contained in the table correspond to accession numbers with the American Type Culture Collection (reference strains were either obtained from the American Type Culture Collection or from the Microbiology Laboratory at Memorial Sloan-Kettering Cancer Center; Bacterial strains were maintained on Columbia 5% sheep blood agar plates, and fungi were maintained on Sabouraud Dextrose agar plates).

[2] = test system: A. fumigatus (H1120); assay: MIC, micro-broth dilution; format: cell-based; details: Aspergillus fumigatus, 35° C., 24 hours, read-out: ANTIMICROBIAL ACTIVITY (MIC)
Description: as §1, §2

[3] = test system: A. fumigatus (H29709); assay: MIC, micro-broth dilution; format: cell-based; details: Aspergillus fumigatus, 35° C., 24 hours, read-out: ANTIMICROBIAL ACTIVITY (MIC)
Description: as §1, §2

[4] = test system: C. albicans (90028); assay: MIC, micro-broth dilution; format: cell-based; details: Candida albicans, 35° C., 24 hours, read-out: ANTIMICROBIAL ACTIVITY (MIC)
Description: as §1, §2

[5] = test system: C. neoformans (90012); assay: MIC, micro-broth dilution; format: cell-based; details: Cryptococcus neoformans, 24 h, read-out: ANTIMICROBIAL ACTIVITY (MIC)
Description: as §1, §2

[6] = test system: C. neoformans (M68979); assay: MIC, micro-broth dilution; format: cell-based; details: Cryptococcus neoformans, 24 h, read-out: ANTIMICROBIAL ACTIVITY (MIC)
Description: as §1, §2

[7] = test system: E. cloacae (13047); assay: MIC, micro-broth dilution; format: cell-based; details: Enterobacter cloacae, 35° C., 24 hours, read-out: ANTIMICROBIAL ACTIVITY (MIC)
Description: as §1, §2

[8] = test system: E. coli (25922); assay: MIC, micro-broth dilution; format: cell-based; details: Escherichia coli, 35° C., 24 hours, read-out: ANTIMICROBIAL ACTIVITY (MIC)
Description: as §1, §2

[9] = test system: E. faecalis (29212); assay: MIC, micro-broth dilution; format: cell-based; details: Enterococcus faecalis, 35° C., 24 hours, read-out: ANTIMICROBIAL ACTIVITY (MIC)
Description: as §1, §2

[10] = test system: E. faecium (T6480-9); assay: MIC, micro-broth dilution; format: cell-based; details: Enterococcus faecium, 35° C., 24 hours, read-out: ANTIMICROBIAL ACTIVITY (MIC)
Description: as §1, §2

[11] = test system: K. pneumoniae (13883); assay: MIC, micro-broth dilution; format: cell-based; details: Klebsiella pneumoniae, 24 h, read-out: ANTIMICROBIAL ACTIVITY (MIC)
Description: as §1, §2

[12] = test system: P. aeruginosa (10145); assay: MIC, micro-broth dilution; format: cell-based; details: Pseudomonas aeruginosa, 35° C., 24 hours, read-out: ANTIMICROBIAL ACTIVITY (MIC)
Description: as §1, §2

[13] = test system: P. aeruginosa (2853); assay: MIC, micro-broth dilution; format: cell-based; details: Pseudomonas aeruginosa, 24 h, read-out: ANTIMICROBIAL ACTIVITY (MIC)
Description: as §1, §2

[14] = test system: P. vulgaris (13315); assay: MIC, micro-broth dilution; format: cell-based; details: Proteus vulgaris, 35° C., 24 hours, read-out: ANTIMICROBIAL ACTIVITY (MIC)
Description: as §1, §2

[15] = test system: S. agalactiae (13813); assay: MIC, micro-broth dilution; format: cell-based; details: Streptococcus agalactiae, 35° C., 24 hours, read-out: ANTIMICROBIAL ACTIVITY (MIC)
Description: as §1, §2

[16] = test system: S. aureus (29213); assay: MIC, micro-broth dilution; format: cell-based; details: Staphylococcus aureus, read-out: ANTIMICROBIAL ACTIVITY (MIC)
Description: as §1, §2

[17] = test system: S. epidermidis (12228); assay: MIC, micro-broth dilution; format: cell-based; details: Staphylococcus epidermidis, 35° C., 24 hours, read-out: ANTIMICROBIAL ACTIVITY (MIC)
Description: as §1, §2

[18] = test system: S. marcescens (13880); assay: MIC, micro-broth dilution; format: cell-based; details: for MIC: Serratia marcescens, 24 h, read-out: ANTIMICROBIAL ACTIVITY (MIC)
Description: as §1, §2

[19] = test system: S. pneumoniae (6305); assay: MIC, micro-broth dilution; format: cell-based; details: Streptococcus pneumoniae, 35° C., 24 hours, read-out: ANTIMICROBIAL ACTIVITY (MIC)
Description: as §1, §2

[20] = test system: S. pyrogenes (19615); assay: MIC, micro-broth dilution; format: cell-based; details: 24 h, read-out: ANTIMICROBIAL ACTIVITY (MIC)
Description: as §1, §2

[21] = Hemolytic activity, minimal hemolytic concentration (MHC); format: cell-based, sheep;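 for MCC: MCC here is the minimal hemolytic concentration (MHC)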
Description: (§3) Hemolytic activity of the squalamine mimics according to the present invention were also studied by incubating sheep red blood cells for 24 hours at 37° C. in saline (final concentration of 0.5%) with or without respective concentrations of the squalamine mimics. The minimal hemolytic concentration (MHC) was determined as the lowest concentration of a mimic that raised visible hemolysis.

[22] = test system: sheep red blood cells; assay: as above; format: cell-based
Description: as §3

[23] = test system: S. aureus (25923); assay: MIC, micro-broth dilution; format: cell-based; details: Staphylococcus aureus, 35° C., 24 hours, read-out: ANTIMICROBIAL ACTIVITY (MIC)
Description: as §1, §2

[24] = test system: S. aureus (H20809); assay: MIC, micro-broth dilution; format: cell-based; details: Staphylococcus aureus, 24 h, read-out: ANTIMICROBIAL ACTIVITY (MIC)
Description: as §1, §2

| Compound | MIC [1] [µg/mL] | MIC [2] [µg/mL] | MIC [4] [µg/mL] | MIC [6] [µg/mL] | MIC [7] [µg/mL] | MIC [8] [µg/mL] | MIC [9] [µg/mL] | MIC [10] [µg/mL] | MIC [11] [µg/mL] | MIC [12] [µg/mL] | MIC [13] [µg/mL] | MIC [14] [µg/mL] | MIC [15] [µg/mL] | MIC [17] [µg/mL] | MIC [18] [µg/mL] | MIC [19] [µg/mL] | MIC [20] [µg/mL] | also measured |
| --- | --- | --- | --- | --- | --- | --- | --- | --- | --- | --- | --- | --- | --- | --- | --- | --- | --- | --- |
| C[C@H](C(=O)NCCCCN)[C@H]1CC[C@H]2[C@@H]3CC=C4C[C@@H](O)CC[C@]4(C)[C@H]3CC[C@]12C [SM-3] | > 100 |  |  |  |  |  |  |  |  |  |  |  |  |  |  |  |  |  |
| C[C@H](C(=O)NCCCCN)[C@H]1CC[C@H]2[C@@H]3CC=C4C[C@@H](OS(=O)(=O)O)CC[C@]4(C)[C@H]3CC[C@]12C [SM-4] | > 100 |  |  |  |  |  |  |  |  |  |  |  |  |  |  |  |  |  |
| C[C@H](CCCNCCCNCCCCNCCCN)[C@H]1CC[C@H]2[C@@H]3CC[C@@H]4C[C@H](O)CC[C@]4(C)[C@H]3C[C@H](O)[C@]12C [SM-7H] |  | 12.5 (≈ 22.2 µM) | 6.25 (≈ 11.1 µM) | 0.39 (≈ 0.693 µM) | 12.5 (≈ 22.2 µM) | 6.25 (≈ 11.1 µM) | 6.25 (≈ 11.1 µM) | 6.25 (≈ 11.1 µM) | 12.5 (≈ 22.2 µM) | 3.13 (≈ 5.56 µM) | 3.13 (≈ 5.56 µM) | 6.25 (≈ 11.1 µM) | 0.78 (≈ 1.39 µM) | 0.39 (≈ 0.693 µM) | 12.5 (≈ 22.2 µM) | 1.56 (≈ 2.77 µM) | 0.39 (≈ 0.693 µM) | MIC [3]: 12.5 µg/mL (≈ 22.2 µM); MIC [5]: 0.39 µg/mL (≈ 0.693 µM); MIC ([16]; S. aureus (29213), 35° C., 24 hours): 0.78 µg/mL (≈ 1.39 µM); activity against S. marcescens ([18]; in words): found even against S. marcescens; also recorded: effective against S. marcescens; MCC at 24 h ([21]; sheep, red blood cells): 50 µg/mL; hemolytic activity (in words) [22]: unwanted hemolytic activity |
| C[C@H](CCC(=O)NCCCNCCCCNCCCN)[C@H]1CC[C@H]2[C@@H]3[C@H](O)C[C@@H]4C[C@H](O)CC[C@]4(C)[C@H]3C[C@H](O)[C@]12C [SM-13, cholic acid-spermine conjugate] |  | 25 (≈ 42.2 µM) | 12.5 (≈ 21.1 µM) | 3.13 (≈ 5.28 µM) | > 100 | 25 (≈ 42.2 µM) | 50 (≈ 84.3 µM) | 50 (≈ 84.3 µM) | > 100 | 25 (≈ 42.2 µM) | 25 (≈ 42.2 µM) | > 100 | 12.5 (≈ 21.1 µM) | 3.13 (≈ 5.28 µM) | > 100 | 25 (≈ 42.2 µM) | 3.13 (≈ 5.28 µM) | MIC [23]: 6.25 µg/mL (≈ 10.5 µM); MIC ([16]; 24 h): 12.5 µg/mL (≈ 21.1 µM); MIC [24]: 6.25 µg/mL (≈ 10.5 µM); minimal hemolytic concentration (MHC) at 24 h ([21]; sheep red blood cells, 24 hours at 37° C. in saline): > 100 µg/mL; antimicrobial activity (in words) [1]: lesser activity; also recorded: more activity than SM-8, SM-14, and SM-22 |
| C[C@H](CCC(=O)NCCCNCCCCNCCCN)[C@H]1CC[C@H]2[C@@H]3[C@H](OS(=O)(=O)O)C[C@@H]4C[C@H](OS(=O)(=O)O)CC[C@]4(C)[C@H]3C[C@H](OS(=O)(=O)O)[C@]12C [SM-14] | > 100 |  |  |  |  |  |  |  |  |  |  |  |  |  |  |  |  |  |
